Results: ChEMBL document CHEMBL3351497, “Structure Activity Relationships of αv Integrin Antagonists for Pulmonary Fibrosis by Variation in Aryl Substituents” (ACS Med Chem Lett, 2014)

Key:
[1] = target: T1, Integrin alpha-V/beta-6 (Homo sapiens, UniProt P06756+P18564); assay: Inhibition of integrin alphavbeta6 (unknown origin)-mediated K562 cell adhesion to LAPb1 coated surface by fluorescence analysis; type: cell-based
[2] = target: T1, Integrin alpha-V/beta-6; assay: Inhibition of integrin alphavbeta6 (unknown origin) by Merck AG cell assay; type: cell-based
[3] = target: T2, Integrin alpha-V/beta-3 (Homo sapiens, UniProt P05106+P06756); assay: Inhibition of integrin alphavbeta3 (unknown origin)-mediated K562 cell adhesion to LAPb1 coated surface by fluorescence analysis; type: cell-based
[4] = target: Integrin alpha-V/beta-5 (Homo sapiens, UniProt P06756+P18084); assay: Inhibition of integrin alphavbeta5 (unknown origin)-mediated K562 cell adhesion to vitronectin coated surface by fluorescence analysis; type: cell-based
[5] = target: Integrin alpha-V/beta-8 (Homo sapiens, UniProt P06756+P26012); assay: Inhibition of integrin alphavbeta8 (unknown origin)-mediated K562 cell adhesion to LAPb1 coated surface by fluorescence analysis; type: cell-based
[6] = Lipophilicity, log D of the compound by HPLC chromatographic method; type: physicochemical
[7] = tested on: K562; assay: Selectivity ratio of IC50 for integrin alphavbeta6 (unknown origin)-mediated K562 cell adhesion to LAPb1 coated surface to IC50 for integrin alphavbeta3 (unknown origin)-mediated K562 cell adhesion to LAPb1 coated surface; type: cell-based; settings: Homo sapiens
[8] = tested on: K562; assay: Selectivity ratio of IC50 for integrin alphavbeta6 (unknown origin)-mediated K562 cell adhesion to LAPb1 coated surface to IC50 for integrin alphavbeta5 (unknown origin)-mediated K562 cell adhesion to vitronectin coated surface; type: cell-based; settings: Homo sapiens
[9] = tested on: K562; assay: Selectivity ratio of IC50 for integrin alphavbeta8 (unknown origin)-mediated K562 cell adhesion to LAPb1 coated surface to IC50 for integrin alphavbeta3 (unknown origin)-mediated K562 cell adhesion to LAPb1 coated surface; type: cell-based; settings: Homo sapiens
[10] = tested on: K562; assay: Selectivity ratio of IC50 for integrin alphavbeta8 (unknown origin)-mediated K562 cell adhesion to LAPb1 coated surface to IC50 for integrin alphavbeta5 (unknown origin)-mediated K562 cell adhesion to vitronectin coated surface; type: cell-based; settings: Homo sapiens
[11] = target: T2, Integrin alpha-V/beta-3; assay: Inhibition of integrin alphavbeta3 (unknown origin) by Merck binding assay; type: protein-complex assay

Chain of Integrin alpha-V/beta-8 (P06756 31-889 limits assumed): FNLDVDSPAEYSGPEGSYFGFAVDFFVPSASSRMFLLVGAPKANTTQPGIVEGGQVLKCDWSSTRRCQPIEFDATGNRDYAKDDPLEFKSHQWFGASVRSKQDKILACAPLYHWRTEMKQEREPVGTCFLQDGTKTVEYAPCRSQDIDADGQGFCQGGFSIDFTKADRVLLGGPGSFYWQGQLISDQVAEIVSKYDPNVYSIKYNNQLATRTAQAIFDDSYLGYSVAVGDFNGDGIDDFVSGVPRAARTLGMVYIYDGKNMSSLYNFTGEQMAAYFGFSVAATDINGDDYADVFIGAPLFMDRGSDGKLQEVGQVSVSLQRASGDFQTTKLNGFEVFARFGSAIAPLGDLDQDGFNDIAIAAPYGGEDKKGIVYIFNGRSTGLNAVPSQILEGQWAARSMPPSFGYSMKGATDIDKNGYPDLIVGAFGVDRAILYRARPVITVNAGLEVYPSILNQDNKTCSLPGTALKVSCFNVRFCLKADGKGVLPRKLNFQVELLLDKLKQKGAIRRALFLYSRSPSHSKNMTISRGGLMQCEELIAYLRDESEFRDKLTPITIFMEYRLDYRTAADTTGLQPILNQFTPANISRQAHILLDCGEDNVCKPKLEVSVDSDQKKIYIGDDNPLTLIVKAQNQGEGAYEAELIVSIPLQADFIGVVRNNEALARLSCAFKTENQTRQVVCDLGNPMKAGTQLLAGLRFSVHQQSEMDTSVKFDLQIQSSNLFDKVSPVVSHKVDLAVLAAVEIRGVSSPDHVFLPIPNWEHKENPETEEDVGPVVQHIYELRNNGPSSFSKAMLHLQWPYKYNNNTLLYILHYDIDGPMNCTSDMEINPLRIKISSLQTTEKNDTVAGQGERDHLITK
Chain of Integrin alpha-V/beta-8 (P06756 891-1048 limits assumed): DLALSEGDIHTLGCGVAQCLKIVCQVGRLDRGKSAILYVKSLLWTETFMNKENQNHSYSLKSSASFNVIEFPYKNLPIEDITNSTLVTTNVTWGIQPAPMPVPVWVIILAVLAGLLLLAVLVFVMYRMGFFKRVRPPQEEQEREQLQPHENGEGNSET
Chain of Integrin alpha-V/beta-8 (P26012 43-769 limits assumed): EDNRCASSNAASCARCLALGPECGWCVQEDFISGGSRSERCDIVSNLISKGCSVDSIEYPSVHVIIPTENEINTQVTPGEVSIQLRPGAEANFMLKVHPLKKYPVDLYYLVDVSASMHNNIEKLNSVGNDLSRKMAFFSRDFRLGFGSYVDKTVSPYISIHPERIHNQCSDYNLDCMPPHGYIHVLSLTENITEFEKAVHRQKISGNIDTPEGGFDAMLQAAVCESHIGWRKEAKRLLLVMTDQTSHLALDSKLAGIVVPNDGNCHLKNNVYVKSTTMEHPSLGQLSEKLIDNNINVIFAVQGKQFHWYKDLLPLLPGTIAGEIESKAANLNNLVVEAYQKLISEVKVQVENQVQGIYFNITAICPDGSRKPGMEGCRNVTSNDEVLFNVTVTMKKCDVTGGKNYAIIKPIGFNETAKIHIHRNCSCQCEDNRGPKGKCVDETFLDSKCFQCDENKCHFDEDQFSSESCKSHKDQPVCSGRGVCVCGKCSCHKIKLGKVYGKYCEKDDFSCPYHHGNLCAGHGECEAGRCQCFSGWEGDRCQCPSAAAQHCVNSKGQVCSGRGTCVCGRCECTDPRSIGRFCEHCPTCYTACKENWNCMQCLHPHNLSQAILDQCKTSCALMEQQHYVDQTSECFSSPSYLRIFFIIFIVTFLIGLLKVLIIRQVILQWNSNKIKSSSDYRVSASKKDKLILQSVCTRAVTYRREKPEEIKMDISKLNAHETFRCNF
Chain of Integrin alpha-V/beta-5 (P06756 31-889 limits assumed): as the sequence (P06756 31-889 limits assumed) above
Chain of Integrin alpha-V/beta-5 (P06756 891-1048 limits assumed): as the sequence (P06756 891-1048 limits assumed) above
Chain of Integrin alpha-V/beta-5 (P18084 24-799 limits assumed): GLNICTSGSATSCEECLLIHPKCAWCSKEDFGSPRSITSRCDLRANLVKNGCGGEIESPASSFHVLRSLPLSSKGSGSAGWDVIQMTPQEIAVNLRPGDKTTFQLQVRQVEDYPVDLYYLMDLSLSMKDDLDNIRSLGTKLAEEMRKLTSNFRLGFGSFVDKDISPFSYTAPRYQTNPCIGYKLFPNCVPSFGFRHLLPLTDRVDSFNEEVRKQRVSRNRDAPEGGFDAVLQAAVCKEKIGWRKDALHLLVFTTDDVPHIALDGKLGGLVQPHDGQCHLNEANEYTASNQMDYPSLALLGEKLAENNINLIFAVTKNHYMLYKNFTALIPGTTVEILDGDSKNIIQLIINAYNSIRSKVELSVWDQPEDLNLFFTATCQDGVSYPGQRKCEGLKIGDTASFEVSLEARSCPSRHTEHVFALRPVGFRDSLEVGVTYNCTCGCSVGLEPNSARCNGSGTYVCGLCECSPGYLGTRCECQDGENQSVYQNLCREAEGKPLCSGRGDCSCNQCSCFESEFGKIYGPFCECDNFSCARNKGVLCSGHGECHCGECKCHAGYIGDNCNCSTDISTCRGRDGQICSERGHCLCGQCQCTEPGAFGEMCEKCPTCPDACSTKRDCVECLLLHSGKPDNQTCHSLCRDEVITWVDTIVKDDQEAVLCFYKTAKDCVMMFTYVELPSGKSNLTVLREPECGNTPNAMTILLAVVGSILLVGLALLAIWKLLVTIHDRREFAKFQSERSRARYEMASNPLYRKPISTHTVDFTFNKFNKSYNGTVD
T1 sequence (P06756 31-889 limits assumed): as the sequence (P06756 31-889 limits assumed) above
T1 sequence (P06756 891-1048 limits assumed): as the sequence (P06756 891-1048 limits assumed) above
T1 sequence (P18564 22-788 limits assumed): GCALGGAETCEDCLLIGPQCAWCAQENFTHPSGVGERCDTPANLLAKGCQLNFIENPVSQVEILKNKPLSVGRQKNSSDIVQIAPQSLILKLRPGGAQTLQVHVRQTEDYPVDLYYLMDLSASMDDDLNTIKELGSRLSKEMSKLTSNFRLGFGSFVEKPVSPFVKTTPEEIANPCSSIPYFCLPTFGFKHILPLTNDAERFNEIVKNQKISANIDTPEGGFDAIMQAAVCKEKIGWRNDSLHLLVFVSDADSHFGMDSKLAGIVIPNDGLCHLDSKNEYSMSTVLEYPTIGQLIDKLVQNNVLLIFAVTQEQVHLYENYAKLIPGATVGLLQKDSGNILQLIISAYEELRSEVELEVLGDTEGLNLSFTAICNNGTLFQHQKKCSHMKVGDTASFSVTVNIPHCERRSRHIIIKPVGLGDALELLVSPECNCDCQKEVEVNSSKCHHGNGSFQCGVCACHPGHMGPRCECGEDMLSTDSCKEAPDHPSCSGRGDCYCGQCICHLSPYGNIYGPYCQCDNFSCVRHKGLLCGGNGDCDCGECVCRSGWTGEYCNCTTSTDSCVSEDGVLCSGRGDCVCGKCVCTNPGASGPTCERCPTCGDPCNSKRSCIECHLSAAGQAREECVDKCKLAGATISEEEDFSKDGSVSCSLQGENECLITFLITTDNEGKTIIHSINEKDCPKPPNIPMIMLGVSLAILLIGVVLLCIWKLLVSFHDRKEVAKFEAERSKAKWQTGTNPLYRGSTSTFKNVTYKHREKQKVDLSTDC
T2 sequence (P05106 27-788 limits assumed): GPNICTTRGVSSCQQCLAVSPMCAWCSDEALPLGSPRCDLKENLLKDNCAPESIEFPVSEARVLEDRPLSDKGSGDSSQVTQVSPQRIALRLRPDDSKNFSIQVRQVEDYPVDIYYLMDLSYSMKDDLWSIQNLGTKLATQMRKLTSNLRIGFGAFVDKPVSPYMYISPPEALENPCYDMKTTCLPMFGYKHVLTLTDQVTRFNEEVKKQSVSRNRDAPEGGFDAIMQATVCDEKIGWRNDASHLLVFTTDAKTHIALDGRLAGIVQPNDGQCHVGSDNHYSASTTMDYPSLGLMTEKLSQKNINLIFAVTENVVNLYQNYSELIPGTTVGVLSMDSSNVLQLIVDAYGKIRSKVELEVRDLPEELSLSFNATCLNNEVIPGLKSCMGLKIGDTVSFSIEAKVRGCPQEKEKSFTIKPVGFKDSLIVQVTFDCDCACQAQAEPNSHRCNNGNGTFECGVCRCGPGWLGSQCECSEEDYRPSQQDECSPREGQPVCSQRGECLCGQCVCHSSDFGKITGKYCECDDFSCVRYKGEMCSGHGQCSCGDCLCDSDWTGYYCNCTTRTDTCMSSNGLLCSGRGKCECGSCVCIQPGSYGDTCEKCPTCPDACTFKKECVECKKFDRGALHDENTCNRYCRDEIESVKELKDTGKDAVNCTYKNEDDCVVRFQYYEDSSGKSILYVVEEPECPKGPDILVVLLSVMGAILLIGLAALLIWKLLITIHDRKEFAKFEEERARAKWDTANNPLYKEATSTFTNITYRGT
T2 sequence (P06756 31-889 limits assumed): as the sequence (P06756 31-889 limits assumed) above
T2 sequence (P06756 891-1048 limits assumed): as the sequence (P06756 891-1048 limits assumed) above

Structure (SMILES) | IC50 [1] [nM] | IC50 [2] [nM] | IC50 [3] [nM] | IC50 [4] [nM] | IC50 [5] [nM] | chromatographic logD [6] | Ratio IC50 [7] | Ratio IC50 [8] | Ratio IC50 [9] | Ratio IC50 [10] | IC50 [11] [nM] | logD [6]
O=C(O)C[C@H](NC(=O)C(COCc1ccccc1)NC(=O)CCCCNc1ccccn1)c1cc(Cl)cc(Cl)c1 (stereo not given in full) | 1000 | 200 | – | – | – | – | – | – | – | – | – | –
N=C(N)Nc1cccc(C(=O)NCC(=O)NC(CC(=O)O)c2cc(Cl)cc(Cl)c2)c1 (stereo not given) | 158 | – | – | – | – | – | – | – | – | – | – | –
O=C(O)C[C@H](NC(=O)CCCCc1ccc2c(n1)NCCC2)c1cccc(C(F)(F)F)c1 | 79.4 | – | 100 | 63.1 | 126 | 2.72 | – | – | – | – | – | –
O=C(O)C[C@@H](NC(=O)CCCCc1ccc2c(n1)NCCC2)c1cccc(C(F)(F)F)c1 | 6310 | – | > 10000 | 2000 | > 10000 | 2.61 | – | – | – | – | – | –
O=C(O)CC(NC(=O)CCCCc1ccc2c(n1)NCCC2)c1ccc(Cl)cc1 (racemic) | 398 | – | 126 | 126 | 631 | 2.14 | – | – | – | – | – | –
O=C(O)CC(NC(=O)CCCCc1ccc2c(n1)NCCC2)c1ccccc1 (racemic) | 2000 | – | 100 | 79.4 | 794 | 1.56 | 10 | 10 | 10 | 10 | – | –
O=C(O)CC(NC(=O)CCCCc1ccc2c(n1)NCCC2)c1ccccc1F (racemic) | 1000 | – | 316 | 100 | 3980 | 1.88 | – | – | – | – | – | –
O=C(O)CC(NC(=O)CCCCc1ccc2c(n1)NCCC2)c1ccccc1Cl (racemic) | > 10000 | – | 2000 | 1580 | > 10000 | 1.92 | – | – | – | – | – | –
Cc1ccccc1C(CC(=O)O)NC(=O)CCCCc1ccc2c(n1)NCCC2 (racemic) | 398 | – | 50.1 | 20 | 1260 | 1.85 | – | – | – | – | – | –
COc1ccccc1C(CC(=O)O)NC(=O)CCCCc1ccc2c(n1)NCCC2 (racemic) | > 10000 | – | 501 | 501 | > 10000 | 1.83 | – | – | – | – | – | –
O=C(O)CC(NC(=O)CCCCc1ccc2c(n1)NCCC2)c1cccc(F)c1 (racemic) | 794 | – | 31.6 | 15.8 | 1580 | 1.92 | 10 | 10 | 10 | 10 | 23 | –
O=C(O)CC(NC(=O)CCCCc1ccc2c(n1)NCCC2)c1cccc(Cl)c1 (racemic) | 251 | – | 79.4 | 25.1 | 501 | 2.3 | – | – | – | – | – | –
Cc1cccc(C(CC(=O)O)NC(=O)CCCCc2ccc3c(n2)NCCC3)c1 (racemic) | 398 | – | 158 | 50.1 | 631 | 1.95 | – | – | – | – | – | –
COc1cccc(C(CC(=O)O)NC(=O)CCCCc2ccc3c(n2)NCCC3)c1 (racemic) | 316 | – | 39.8 | 63.1 | 501 | 1.66 | 10 | 10 | 10 | 10 | – | –
O=C(O)CC(NC(=O)CCCCc1ccc2c(n1)NCCC2)c1ccc(F)cc1 (racemic) | 501 | – | 100 | 63.1 | 501 | 1.75 | – | – | – | – | – | –
Cc1ccc(C(CC(=O)O)NC(=O)CCCCc2ccc3c(n2)NCCC3)cc1 (racemic) | 794 | – | 39.8 | 100 | 1000 | 1.97 | – | – | – | – | – | –
COc1ccc(C(CC(=O)O)NC(=O)CCCCc2ccc3c(n2)NCCC3)cc1 (racemic) | 501 | – | 25.1 | 50.1 | 501 | 1.64 | 10 | 10 | 10 | 10 | – | –
N#Cc1ccc(C(CC(=O)O)NC(=O)CCCCc2ccc3c(n2)NCCC3)cc1 (racemic) | 398 | – | 79.4 | 398 | 794 | 1.47 | – | – | – | – | – | –
O=C(O)CC(NC(=O)CCCCc1ccc2c(n1)NCCC2)c1ccc(C(F)(F)F)cc1 (racemic) | 631 | – | 251 | 316 | 794 | 2.72 | – | – | – | – | – | –

Structure (SMILES) | IC50 [1] [nM] | IC50 [2] [nM] | IC50 [3] [nM] | IC50 [4] [nM] | IC50 [5] [nM] | chromatographic logD [6] | Ratio IC50 [7] | Ratio IC50 [8] | Ratio IC50 [9] | Ratio IC50 [10] | IC50 [11] [nM] | logD [6]
O=C(O)CC(NC(=O)CCCCc1ccc2c(n1)NCCC2)c1ccc(OC(F)(F)F)cc1 (racemic) | 631 | – | 158 | 501 | 794 | 2.85 | – | – | – | – | – | –
CS(=O)(=O)c1ccc(C(CC(=O)O)NC(=O)CCCCc2ccc3c(n2)NCCC3)cc1 (racemic) | 631 | – | 126 | 398 | 794 | 1.08 | – | – | – | – | – | –
O=C(O)CC(NC(=O)CCCCc1ccc2c(n1)NCCC2)c1ccc(-c2ccccc2)cc1 (racemic) | 398 | – | 100 | 631 | 316 | 3.1 | – | – | – | – | – | –
N#Cc1cccc(C(CC(=O)O)NC(=O)CCCCc2ccc3c(n2)NCCC3)c1 (racemic) | 251 | – | 200 | 39.8 | 1000 | 1.67 | – | – | – | – | – | –
O=C(O)CC(NC(=O)CCCCc1ccc2c(n1)NCCC2)c1cccc(C(F)(F)F)c1 (racemic) | 100 | – | 200 | 39.8 | 158 | 2.73 | – | – | – | – | – | –
O=C(O)CC(NC(=O)CCCCc1ccc2c(n1)NCCC2)c1cccc(OC(F)(F)F)c1 (racemic) | 200 | – | 398 | 79.4 | 251 | 3.11 | – | – | – | – | – | –
O=C(O)CC(NC(=O)CCCCc1ccc2c(n1)NCCC2)c1cccc(Cl)c1Cl (racemic) | 7940 | – | 3980 | 501 | 10000 | 2.73 | – | – | – | – | – | –
O=C(O)CC(NC(=O)CCCCc1ccc2c(n1)NCCC2)c1ccc(Cl)c(Cl)c1 (racemic) | 200 | – | 50.1 | 100 | 200 | 2.62 | – | – | – | – | – | –
O=C(O)CC(NC(=O)CCCCc1ccc2c(n1)NCCC2)c1cc(Cl)cc(Cl)c1 (racemic) | 251 | – | 398 | 200 | 251 | 2.93 | – | – | – | – | – | –
Cc1ccc(C(CC(=O)O)NC(=O)CCCCc2ccc3c(n2)NCCC3)cc1C (racemic) | 200 | – | 63.1 | 63.1 | 501 | 2.29 | – | – | – | – | – | –
O=C(O)CC(NC(=O)CCCCc1ccc2c(n1)NCCC2)c1ccc2c(c1)CCC2 (racemic) | 158 | – | 126 | 79.4 | 398 | 2.52 | – | – | – | – | – | –
Cc1cc(C)cc(C(CC(=O)O)NC(=O)CCCCc2ccc3c(n2)NCCC3)c1 (racemic) | 501 | – | 398 | 398 | 631 | 2.43 | – | – | – | – | – | –
COc1ccc(C(CC(=O)O)NC(=O)CCCCc2ccc3c(n2)NCCC3)cc1OC (racemic) | 316 | – | 100 | 63.1 | 398 | 1.37 | – | – | – | – | – | –
O=C(O)CC(NC(=O)CCCCc1ccc2c(n1)NCCC2)c1ccc2c(c1)OCO2 (racemic) | 251 | – | 15.8 | 12.6 | 794 | 1.47 | – | – | – | – | – | –
O=C(O)CC(NC(=O)CCCCc1ccc2c(n1)NCCC2)c1ccc(Cl)c(C(F)(F)F)c1 (racemic) | 100 | – | 316 | 126 | 251 | 3.1 | – | – | – | – | – | –
O=C(O)CC(NC(=O)CCCCc1ccc2c(n1)NCCC2)c1ccc(Cl)c(C(F)(F)F)c1 (single isomer, unassigned; enantiomer 1) | 63.1 | – | 158 | 63.1 | 126 | – | – | – | – | – | – | 3.28
O=C(O)CC(NC(=O)CCCCc1ccc2c(n1)NCCC2)c1cc(Cl)cc(Cl)c1 (single isomer, unassigned; enantiomer 2) | 158 | – | 126 | 251 | 100 | – | – | – | – | – | – | 2.8
O=C(O)CC(NC(=O)CCCCc1ccc2c(n1)NCCC2)c1ccc(Cl)c(C(F)(F)F)c1 (single isomer, unassigned; enantiomer 2) | > 10000 | – | 1580 | 631 | > 10000 | – | – | – | – | – | – | 3.25
O=C(O)CC(NC(=O)CCCCc1ccc2c(n1)NCCC2)c1cc(Cl)cc(Cl)c1 (stereo in doubt; 37E1) | 6310 | – | > 10000 | 1000 | > 10000 | – | – | – | – | – | – | 2.97
